Source: US20250346584A1, “NOVEL KAPPA OPIOID LIGANDS” (The Scripps Research Institute, priority 2012, published 2025)

Biological target: kappa opioid receptor (OPRK1) (Homo sapiens (Human), UniProt P41145)
Experiment: OPRK1 antagonist assay (b-arrestin-2-TEV / b-lactamase reporter cell line, EC80 U-50488 challenge)
Assay type: cell-based
Conditions: for IC50: read-out: IC50 nM (% inhib if other than 50%), antagonist mode vs EC80 U-50488, NA = not active at concentrations up to 10 μM

Sequence of kappa opioid receptor (OPRK1) (P41145 whole entry): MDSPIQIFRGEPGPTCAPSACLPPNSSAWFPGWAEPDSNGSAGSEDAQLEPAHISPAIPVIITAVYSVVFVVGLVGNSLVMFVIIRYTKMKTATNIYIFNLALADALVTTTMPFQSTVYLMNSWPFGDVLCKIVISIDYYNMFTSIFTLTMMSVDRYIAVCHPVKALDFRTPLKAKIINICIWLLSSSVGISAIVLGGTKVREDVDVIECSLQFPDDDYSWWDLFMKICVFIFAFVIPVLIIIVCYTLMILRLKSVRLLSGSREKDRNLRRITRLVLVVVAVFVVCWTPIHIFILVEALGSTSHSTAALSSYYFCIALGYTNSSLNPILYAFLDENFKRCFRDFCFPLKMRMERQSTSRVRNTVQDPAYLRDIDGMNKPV

Compound | IC50 [nM] | % inhib if other than 50% (% inhibition at the concentration given) [%]
COC(=O)c1cc(I)cnc1N1CCC(NC2CCCCC2)C(OC)C1 (centres unmarked) [compound 123] | 11 | 
CO[C@H]1CN(c2nnc(C)cc2C(=O)OC(C)C)CC[C@H]1NC1CCCCC1 [compound 411] | 10 | 
COC1CN(c2nc(C)c(C)cc2-c2nc(C)no2)CCC1NC1CCCCC1 (centres unmarked) [compound 178] | 483 | 
Cc1noc(-c2cc3ccccc3nc2N2CC[C@@H](NC3CCCCC3)[C@H](O)C2)n1 [compound 192] | 199 | 
COC(=O)c1cc(Br)cnc1N1CCC(N(C)C2CCCCC2)CC1 [compound 19] | 2700 | 
Cc1noc(-c2cc3ccccc3nc2N2CCC(NC3CCCCC3)C(F)C2)n1 (centres unmarked) [compound 204] | 52 | 
COC1CN(c2nc3ccccc3cc2-c2ncccn2)CCC1NC1CCCCC1 (centres unmarked) [compound 263] | 1770 | 
COC(=O)c1cc(I)cnc1N1CCC(NC2CCCC2)C(CO)C1 (centres unmarked) [compound 88] | 52 | 
COC(=O)c1cc(Br)cnc1N1CCC(NC2CCCC2)CC1 [compound 24] | 120 | 
CC(=O)c1cc(Br)cnc1N1CCC(NC2CCCCC2)C(CO)C1 (centres unmarked) [compound 144] | 4800 | 
COC1CN(c2nc3c(cc2-c2nc(C)no2)CCCC3)CCC1NC1CCCCC1 (centres unmarked) [compound 193] | 729 | 
CCc1noc(-c2cc(C)cnc2N2CC[C@@H](NC3CCCCC3)[C@H](O)C2)n1 [compound 168] | 7000 | 
COC(=O)c1cc([N+](=O)[O-])cnc1N1CCC(NC2CCCCC2)C(O)C1 (centres unmarked) [compound 98] | 1100 | 
Cc1noc(-c2cc3c(nc2N2CCC(NC4CCCCC4)C(CO)C2)CCC3)n1 (centres unmarked) [compound 211] | 74 | 
CN(C)C(=O)c1cc(Br)cnc1N1CC[C@@H](NC2CCCCC2)[C@H](O)C1 [compound 138] | 3200 | 
Cc1ccc2nc(N3CCC(NC4CCCOC4)CC3)c(-c3nc(C)no3)cc2c1 (centres unmarked) [compound 247] | 4 | 
Cc1ccc2cc(-c3nc(C)no3)c(N3CCC(NC4CCCCC4O)CC3)nc2c1 (centres unmarked) [compound 256] | 631 | 
OCC1CN(c2ncc(Br)cc2-c2nc(C3CC3)no2)CCC1NC1CCCCC1 (centres unmarked) [compound 151] | 2100 | 
CCc1cnc(N2CC[C@@H](NC3CCCCC3)[C@H](O)C2)c(-c2nc(C)no2)c1 [compound 156] | 1000 | 
Cc1ccc2nc(N3CCC(NC4CCC(O)CC4)CC3)c(-c3nc(C)no3)cc2c1 (centres unmarked) [compound 246] | 51 | 
COC1CN(c2nc3ccccc3cc2C2=NC(C)CO2)CCC1NC1CCCCC1 (centres unmarked) [compound 259] | 372 | 
Cc1noc(-c2cc(Br)cnc2N2CCC(NC3CCCCC3)CC2)n1 [compound 41] | 331 | 
Cc1ccc2nc(N3CCC(NC4CC5CCC4C5)CC3)c(-c3nc(C)no3)cc2c1 (centres unmarked) [compound 265] | 49 | 
Cc1noc(-c2cc3c(nc2N2CCC(NC4CCCCC4)C(CO)C2)CCCC3)n1 (centres unmarked) [compound 191] | 420 | 
Cc1ccc2nc(N3CCC(N(C)C4CCOCC4)CC3)c(-c3nc(C)no3)cc2c1 [compound 267] | 180 | 
COC1CN(c2nc3ccc(C)cc3cc2-c2nc(C)no2)CCC1NC1CCCCC1 (centres unmarked) [compound 214] | 3 | 

Compound | IC50 [nM] | % inhib if other than 50% (% inhibition at the concentration given) [%]
CCc1ccc2nc(N3CCC(NC4CCCCC4)C(OC)C3)c(-c3nc(C)no3)cc2c1 (centres unmarked) [compound 268] | 37 | 
Cc1cnc(N2CCC(NC3CCCCC3)C(CO)C2)c(-c2ncco2)c1 (centres unmarked) [compound 217] | 361 | 
COC(=O)c1cc(NC(=O)NC(C)C)cnc1N1CCC(NC2CCCCC2)CC1 [C35] | 17000 | 
COC(=O)c1cc(Br)cnc1N1CCC(NC2CCCCC2C)C(O)C1 (centres unmarked) [compound 58] | 419 | 
Cc1noc(-c2cc(C)c(C)nc2N2CC[C@@H](NC3CCCCC3)[C@H](O)C2)n1 [compound 154] | 146 | 
Cc1noc(-c2cc3c(nc2N2CC[C@@H](NC4CCCCC4)[C@H](O)C2)CCC3)n1 [compound 207] | 276 | 
CCO/N=C/c1cc(Br)cnc1N1CCC(NC2CCCCC2)CC1 [compound 101] | 4000 | 
COC(=O)c1cc(Br)cnc1N1CCC(NC2CCCC2)C(O)C1 (centres unmarked) [compound 44] | 79 | 
COC(=O)c1cc(C)c(C)nc1N1CCC(NC2CCCCC2)C(CO)C1 (centres unmarked) [compound 162] | 1400 | 
CNC(=O)c1cc2cc(C)ccc2nc1N1CCC(NC2CCCCC2)C(OC)C1 (centres unmarked) [compound 278] | 4720 | 
COC(=O)c1cc(Br)cnc1N1CCC(NC2CCCCC2)C(OC)C1 (centres unmarked) [compound 73] | 205 | 
CC(=O)c1cc(Br)cnc1N1CCC(NC2CCCCC2)C(CO)C1 (centres unmarked) [compound 97] | 2000 | 
COC1CCCCC1NC1CCN(c2nc3ccccc3cc2-c2nc(C)no2)CC1CO (centres unmarked) [compound 199] | 59 | 
Cc1noc(-c2cc(C)c(C)nc2N2CCC(NC3CCCCC3C)C(CO)C2)n1 (centres unmarked) [compound 224] | 17 | 
COC(=O)c1cc(Br)cnc1N1CCC(NCCO)CC1 [compound 6] | 9200 | 80
COC(=O)c1cc(Br)cnc1N1CC2CN(C3CCCCC3)CC2C1 (centres unmarked) [compound 49] | 1300 | 
COC(=O)c1cnc(N2CCC(NC3CCCCC3)CC2)c([N+](=O)[O-])c1 [C36] | 17000 | 
CC(=O)c1cc(Br)cnc1N1CCC(NC2CCCCC2)C(O)C1 (centres unmarked) [compound 99] | 4500 | 
COC(=O)c1cc(Br)cnc1N1CCC(NC2CCCCCC2)CC1 [compound 20] | 110 | 
CCOC(=O)c1cc(Cl)cnc1N1CCC(NC2CCCCC2)C(CO)C1 (centres unmarked) [compound 71] | 93 | 
COC(=O)c1cc(Br)cnc1N1CCC(NC2CC2)CC1 [compound 78] | 1200 | 
Cc1noc(-c2cc3ccccc3nc2N2CCC(NC3CCCC3)C(CO)C2)n1 (centres unmarked) [compound 205] | 17 | 
COC(=O)c1cc(Br)cnc1N1CCC(NC2CCCC(C)C2C)CC1 (centres unmarked) [compound 23] | 854 | 
COC(=O)c1cc(Br)cnc1N1CCC(NC(=O)C2CCCCC2)C(O)C1 (centres unmarked) [C54] | > 20000 | 
Cc1ccc2nc(N3CCC(NC4CC(C)OC(C)C4)CC3)c(-c3nc(C)no3)cc2c1 (centres unmarked) [compound 274] | 50 | 
COC(=O)c1cc(Br)cnc1N1CCC(NC2CCCCC2OC)C(O)C1 (centres unmarked) [compound 59] | 36 | 

Further lines, results first:

IC50 [nM] | % inhib if other than 50% (% inhibition at the concentration given) [%] | Compound
278 |  | CO[C@H]1CN(c2nc3ccc(C)cc3cc2-c2nc(C)no2)CC[C@H]1NC1CCC(F)(F)CC1 [compound 521]
2 |  | CCc1noc(-c2cc3cc(C)ccc3nc2N2CC[C@@H](NC3CCCCC3)[C@@H](OC)C2)n1 [compound 297]
16 |  | CO[C@H]1CN(c2nc(C)c(C)cc2-c2nc(C)no2)CC[C@H]1NC1CCCCC1 [compound 300]
274 |  | Cc1ccc2nc(N3CCC(NC4CCOCC4)CC3)c(C(=O)OC(C)C)cc2c1 [compound 302]
3.5 |  | Cc1ccc2nc(N3CCC(NC4CCCCC4)C(CO)C3)c(-c3nc(C4CC4)no3)cc2c1 (centres unmarked) [compound 304]
10 |  | CO[C@H]1CN(c2nc3ccc(F)cc3cc2-c2nc(C)no2)CC[C@H]1NC1CCCCC1 [compound 296]
74 |  | Cc1nc(-c2cc3ccc(F)c(C)c3nc2N2CCC(NC3CCCCC3)CC2)no1 [compound 503]
116 |  | Cc1cnc(N2CCC(NC3CCCCC3)CC2)c(-c2ccc(C)o2)c1 [compound 499]
331 |  | Cc1ccc2nc(N3CCC(NC4CCOCC4)CC3)c(-c3ccc(C)o3)cc2c1 [compound 501]
8 |  | Cc1nc(-c2cc3ccc(F)cc3nc2N2CCC(NC3CCCCC3)CC2)no1 [compound 480]
4.2 |  | Cc1ccc2nc(N3CCC(NCC(C)C)CC3)c(-c3nc(C4CC4)no3)cc2c1 [compound 354]
107 |  | COC1CN(c2nc3cc(C)c(C)cc3cc2-c2nc(C)no2)CCC1NC1CCCCC1 (centres unmarked) [compound 306]
27 |  | Cc1nc(-c2cc3cc(C)c(F)cc3nc2N2CCC(NCC(C)C)CC2)no1 [compound 513]
12.5 |  | CO[C@H]1CN(c2ncc(C)cc2C(=O)OC(C)C)CC[C@H]1NC1CCCCC1 [compound 356]
2 |  | CO[C@H]1CN(c2nc3ccccc3cc2-c2nc(C)no2)CC[C@H]1NC1CCCCC1 [compound 295]
19 |  | Cc1ccc2nc(N3CCC(NC4CCCCC4)CC3)c(-c3ccc(C)o3)cc2c1 [compound 488]
6 |  | Cc1ccc2nc(N3CCC(NC4CCC(F)(F)CC4)CC3)c(-c3nc(C)no3)cc2c1 [compound 435]

IC50 [nM] | % inhib if other than 50% (% inhibition at the concentration given) [%] | Compound
600 |  | Cc1ccc2nc(N3CCC(NCC(C)C)CC3)c(-c3ccncn3)cc2c1 [compound 534]
227 |  | Cc1nc(-c2cc3ccc(F)c(C)c3nc2N2CCC(NC3CCOCC3)CC2)no1 [compound 511]
170 |  | COC1CN(c2ncc(C)cc2-c2nc(C)no2)CCC1NC1CCOCC1 (centres unmarked) [compound 320]
0.5 |  | COC1CN(c2nc3ccc(C)cc3cc2-c2nc(C3CC3)no2)CCC1NC1CCCCC1 (centres unmarked) [compound 303]
1070 |  | Cc1nc(-c2cc3ccc(F)cc3nc2N2CCC(N[C@H]3CCCOC3)CC2)no1 [compound 486]
33 |  | Cc1noc(-c2cc3cc(C)c(F)cc3nc2N2CCC(NCC(C)C)CC2)n1 [compound 498]
38 |  | COC1CN(c2nc3ccc(C)cc3cc2C(=O)OC(C)C)CCC1NC1CCCCC1 (centres unmarked) [compound 282]
8 |  | COC1CN(c2nc3ccccc3cc2-c2nc(C)no2)CCC1NC1CCOCC1 (centres unmarked) [compound 325]
19 |  | Cc1noc(-c2cc3ccc(Cl)cc3nc2N2CCC(NC3CCCCC3)CC2)n1 [compound 536]
105 |  | CO[C@H]1CN(c2ncc(C)cc2-c2cnc(C)cn2)CC[C@H]1NC1CCCCC1 [compound 472]
17 |  | Cc1ccc2nc(N3CCC(NC4CCOCC4)CC3)c(-c3nc(C4CC4)no3)cc2c1 [compound 305]
52 |  | Cc1ccc2nc(N3CCC(NC4CCCCC4)C3)c(-c3nc(C)no3)cc2c1 (centres unmarked) [compound 461]
33 |  | Cc1noc(-c2cc3ccc(F)c(C)c3nc2N2CCC(NC3CCCCC3)CC2)n1 [compound 491]
101 |  | Cc1nc(-c2cc3cc(F)ccc3nc2N2CCC(N[C@@H]3CCCC[C@H]3O)CC2)no1 [compound 475]
48 |  | CO[C@H]1CN(c2nc3ccc(C)cc3cc2-c2ccc(C)o2)CC[C@H]1NC1CCCCC1 [compound 497]
23 |  | COC1CN(c2ncc(C)cc2-c2nc(C)no2)CCC1NC1CCCC1 (centres unmarked) [compound 316]
